Measured values from patent publication US7205403B2, “8-Heteroaryl xanthine adenosine A2B receptor antagonists” (King Pharmaceuticals Research and Development, Inc., priority 2002, dated 2007).
Entries after “also recorded” stand apart in the source; their conditions may differ. Read-outs that look alike come from different tables or passages of the source.

Experiments:
[1] = molecular target: T1, human A3 adenosine receptor (Homo sapiens, UniProt P0DMS8); experiment: [3H]MRE3008F20 binding to human A3 receptors expressed in CHO cells; details: for Ki, [3H]MRE3008F20 binding to human A3 receptors expressed in CHO cells: geometric mean (95% confidence interval), >1000 = no appreciable binding
T1 construct: expressed in transfected cells; host or cells: CHO cells (membranes)
T1 sequence (P0DMS8 1-318): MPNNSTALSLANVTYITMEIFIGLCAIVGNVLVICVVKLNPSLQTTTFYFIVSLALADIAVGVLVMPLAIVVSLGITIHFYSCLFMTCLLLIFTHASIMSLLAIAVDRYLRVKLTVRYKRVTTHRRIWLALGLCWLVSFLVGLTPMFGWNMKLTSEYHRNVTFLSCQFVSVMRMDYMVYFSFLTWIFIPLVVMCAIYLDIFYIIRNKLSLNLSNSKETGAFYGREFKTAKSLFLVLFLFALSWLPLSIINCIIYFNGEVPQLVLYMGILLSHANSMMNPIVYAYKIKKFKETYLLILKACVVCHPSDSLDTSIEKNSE
Procedure, shortened: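 CHO cell membranes (50 μg protein) competed against 1 nM [3H]-MRE3008-F20 in 50 mM Tris HCl, MgCl2, pH 7.4, with 6–8 ligand concentrations in duplicate, 120 minutes at 4° C. Filter-bound radioactivity counted by scintillation; inhibitory binding constants derived.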

[2] = molecular target: T2, human A2B adenosine receptor (Homo sapiens, UniProt P29275); experiment: Cyclic AMP assay, antagonism of NECA-stimulated cAMP in CHO cells transfected with human A2B receptors; assay type: cell-based; details: inhibition of NECA (100 nM)-stimulated cAMP; geometric mean (95% confidence limits)
T2 sequence (P29275 1-332): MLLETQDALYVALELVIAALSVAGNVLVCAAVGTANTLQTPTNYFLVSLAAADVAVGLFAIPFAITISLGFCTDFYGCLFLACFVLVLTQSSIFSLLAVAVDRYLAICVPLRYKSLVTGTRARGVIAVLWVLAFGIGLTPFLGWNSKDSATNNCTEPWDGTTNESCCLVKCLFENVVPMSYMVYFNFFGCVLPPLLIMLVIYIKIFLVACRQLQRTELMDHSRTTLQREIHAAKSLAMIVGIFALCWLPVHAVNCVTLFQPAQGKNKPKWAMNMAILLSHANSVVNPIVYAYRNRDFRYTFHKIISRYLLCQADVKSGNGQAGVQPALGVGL
Description: Measurement of cyclic AMP (CAMP) levels in CHO cells transfected with human A2B adenosine receptors was performed in the following manner. CHO cells transfected with human A2B adenosine receptors were washed with phosphate-buffered saline, diluted tripsine and centrifuged for 10 minutes at 200 g.
The reaction was terminated by the addition of cold 6% thrichloroacetic acid (TCA). The TCA suspension was centrifuged at 2000 g for 10 minutes at 4° C. and the supernatant was extracted four times with water saturated diethyl ether. The final aqueous, solution was tested for cAMP levels by a competition protein binding assay. Samples of cAMP standard (0–10 pmoles) were added to each test tube containing the incubation buffer (trizma base 0.1 M, aminophylline 8.0 mM, 2-mercaptoethanol 6.0 mM, pH 7.4) and [H^3]-cAMP in a total volume of 0.5 ml. The binding protein previously prepared from beef adrenals, was added to the samples previously incubated at 4° C. for 150 minutes, and after the addition of charcoal were centrifuged at 2000 g for 10 minutes. The clear supernatant was counted in a Beckman scintillation counter.
Finally, to evaluate the regulation of adenylyl cyclase activity and to test whether the binding parameters correlated with the functional response, the IC50 values were obtained for inhibition of cAMP production by antagonists. In particular, we evaluated the capability of the several compounds to inhibit NECA (100 nM)-stimulated cyclic AMP accumulation.

[3] = molecular target: T2, human A2B adenosine receptor; experiment: [3H]DPCPX binding to human A2B receptors expressed in HEK293 cells; parameters: host or cells: HEK 293 cells (membranes)
Procedure, shortened: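 Membranes (20 μg protein) from HEK293 cells expressing recombinant human A2B receptor were incubated 60 min at 25° C with 40 nM [3H]-DPCPX and 6–8 compound concentrations. Buffer was Tris-HCl with MgCl2, 1 mM EDTA, 0.1 mM benzamidine and 2 IU/ml adenosine deaminase, pH 7.4. Filter-bound radioactivity gave the inhibitory binding constant.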

[4] = molecular target: T3, human A1 adenosine receptor (Homo sapiens, UniProt P30542); experiment: [3H]DPCPX binding to human A1 receptors expressed in CHO cells
T3 construct: expressed in transfected cells; host or cells: CHO cells (membranes)
T3 sequence (P30542 1-326): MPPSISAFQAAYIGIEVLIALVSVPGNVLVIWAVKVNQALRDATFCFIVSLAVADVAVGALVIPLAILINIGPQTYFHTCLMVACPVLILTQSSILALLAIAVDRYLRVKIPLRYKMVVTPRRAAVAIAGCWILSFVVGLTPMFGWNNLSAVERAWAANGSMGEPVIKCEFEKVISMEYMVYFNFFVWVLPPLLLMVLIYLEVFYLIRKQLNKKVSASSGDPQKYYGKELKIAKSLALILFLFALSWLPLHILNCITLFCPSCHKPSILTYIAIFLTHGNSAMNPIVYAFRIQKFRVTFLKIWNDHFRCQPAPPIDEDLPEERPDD
Description: The cells were grown adherently and maintained in Dulbecco's modified Eagle's medium with nutrient mixture F12 without nucleosides at 37° C. in 5% CO2/95% air. The cells were washed with phosphate-buffered saline and scraped off flasks in ice cold hypotonic buffer ([…] Tris HCl, 2 mM EDTA, pH 7.4). The cell suspension was homogenized with a Polytron and the homogenate was centrifuged for 30 minutes at 48,000 g. The resultant membrane pellet was re-suspended in 50 mM Tris HCl buffer at pH 7.4 for A1 adenosine receptors; in 50 mM Tris HCl 10 mM MgCl, at pH 7.4 for A2A adenosine receptors; in 50 mM Tris HCl, 10 mM MgCl2, 1 mM EDTA, at pH 7.4 for A3 adenosine receptors and were utilized for binding assays.
Displacement experiments were performed for 120 minutes at 25° C. in 200 μl of buffer containing 1 nM ^3H]-DPCPX 20 μl of diluted membranes (50 μg of protein/assay) and at least 6 to 8 different concentrations of examined compounds.
The filter bound radioactivity was counted on Top Count (efficiency 57%) with Micro-Scint 20.
The filter bound radioactivity was counted on a Top Count brand Microplate Scintillation Counter (efficiency 57%) with Micro-Scint 20. […] Inhibitory binding constant. […] Results and Discussion

[5] = molecular target: T4, human A2A adenosine receptor (Homo sapiens, UniProt P29274); experiment: [3H]ZM241385 binding to human A2A receptors expressed in CHO cells; details: for Ki: read-out: Ki, [3H]ZM241385 binding to human A2A receptors expressed in CHO cells; for Ki, [3H]ZM241385 binding to human A2A receptors expressed in CHO cells: geometric mean (95% confidence interval), >1000 = no appreciable binding
T4 construct: expressed in transfected cells; host or cells: CHO cells (membranes)
Procedure, shortened: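 Membranes from adherent CHO cells, resuspended in 50 mM Tris HCl with 10 mM MgCl2, pH 7.4. The inhibitory binding constant is reported.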

[6] = Table 2, geometric mean (95% confidence limits), at least three experiments in duplicate, read-out: [3H]-DPCPX binding to human A2B receptors in HEK 293 cells Ki
[7] = geometric mean (95% confidence interval), >1000 = no appreciable binding, read-out: Ki, [3H]DPCPX binding to human A2B receptors expressed in HEK293 cells
[8] = geometric mean (95% confidence interval), >1000 = no appreciable binding

T4 sequence (P29274 whole entry): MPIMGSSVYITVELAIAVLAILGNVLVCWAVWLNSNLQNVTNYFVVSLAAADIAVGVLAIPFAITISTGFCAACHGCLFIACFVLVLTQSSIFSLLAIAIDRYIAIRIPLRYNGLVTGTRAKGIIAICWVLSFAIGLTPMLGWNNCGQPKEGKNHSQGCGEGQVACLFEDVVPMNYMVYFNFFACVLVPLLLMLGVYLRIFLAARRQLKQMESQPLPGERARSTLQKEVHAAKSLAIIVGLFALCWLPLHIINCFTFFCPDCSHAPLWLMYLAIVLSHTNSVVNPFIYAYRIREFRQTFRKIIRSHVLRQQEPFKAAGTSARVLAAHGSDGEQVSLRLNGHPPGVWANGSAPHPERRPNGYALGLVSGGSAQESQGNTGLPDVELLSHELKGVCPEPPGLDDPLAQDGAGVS

| SMILES | Ki [1] [nM] | IC50 [2] [nM] | Ki [3, 6] [nM] | Ki [3, 7] [nM] | Ki [4, 8] [nM] | Ki [5] [nM] | Ki [4] [nM] | Ki, [3H]MRE3008F20 binding to human A3 receptors expressed in CHO cells [1] | Ki, [3H]DPCPX binding to human A1 receptors expressed in CHO cells [4, 8] | Ki, [3H]ZM241385 binding to human A2A receptors expressed in CHO cells [5] |
| --- | --- | --- | --- | --- | --- | --- | --- | --- | --- | --- |
| CCCn1c(=O)c2[nH]c(-c3cc(NC(=O)Cc4ccccc4)nn3C)nc2n(CCC)c1=O [AS11, N-[5-(2,6-dioxo-1,3-dipropyl-2,3,6,9-tetrahydro-1H-purin-8-yl)-1-methyl-1H-pyrazol-3-yl]-2-phenylacetamide] | > 1000 | 103 | 35 | 35 | 900 | > 1000 | – | – | – | – |
| CCCn1c(=O)c2[nH]c(-c3cc(NC(=O)Cc4ccc(Cl)cc4)nn3C)nc2n(CCC)c1=O [AS27, N-[5-(2,6-dioxo-1,3-dipropyl-2,3,6,9-tetrahydro-1H-purin-8-yl)-1-methyl-1H-pyrazol-3-yl]-2-(4-chlorophenyl)acetamide] | > 1000 | 128 | 28 | 28 | 520 | > 1000 | – | – | – | – |
| CCCn1c(=O)c2[nH]c(-c3cc(NC(=O)Cc4ccc(OC)c(OC)c4)nn3C)nc2n(CCC)c1=O [AS28, 2-(3,4-dimethoxyphenyl)-N-[5-(2,6-dioxo-1,3-dipropyl-2,3,6,9-tetrahydro-1H-purin-8-yl)-1-methyl-1H-pyrazol-3-yl]acetamide] | > 1000 | 120 | 38 | 38 | – | > 1000 | – | no appreciable binding; also recorded: without significant binding | no appreciable binding; also recorded: without significant binding | no appreciable binding; also recorded: without significant binding |
| CCCn1c(=O)c2[nH]c(-c3cc(NC(=O)Cc4ccccc4)n(C)n3)nc2n(CCC)c1=O [AS35] | – | 152 | 34 | 34 | – | – | – | – | – | – |
| CCCn1c(=O)c2[nH]c(-c3cc(OCC(=O)Nc4ccc(F)cc4)n(C)n3)nc2n(CCC)c1=O [AS61, N-(4-fluorophenyl)-2-{[3-(2,6-dioxo-1,3-dipropyl-2,3,6,9-tetrahydro-1H-purin-8-yl)-1-methyl-1H-pyrazol-5-yl]oxy}acetamide] | > 1000 | – | – | 185 | 181 | > 1000 | – | – | – | – |
| CCCn1c(=O)c2[nH]c(-c3cc(OCC(=O)N4CCN(c5ccccc5)CC4)nn3C)nc2n(CCC)c1=O [AS70, 1,3-di-n-propyl-8-{5-[2-oxo-2-(4-phenyl-piperazin-1-yl)-ethoxy]-2-methyl-2H-pyrazole-3-yl}-xanthine] | > 1000 | – | – | 15 | 250 | > 1000 | – | – | – | – |
| CCCn1c(=O)c2[nH]c(-c3cc(OCC(=O)Nc4ccc(C)cc4)nn3C)nc2n(CCC)c1=O [AS92] | > 1000 | – | – | 19 | 79 | > 1000 | – | – | – | – |
| CCCn1c(=O)c2[nH]c(-c3cc(OCC(=O)Nc4ccc(C)c(C)c4)nn3C)nc2n(CCC)c1=O [AS99, 1,3-di-n-propyl-8-{5-[(3,4-dimethyl-phenylcarbamoyl)-methoxy]-2-methyl-2H-pyrazole-3-yl}-xanthine] | > 1000 | – | – | 10 | 700 | > 1000 | – | – | – | – |
| CCCn1c(=O)c2[nH]c(-c3cc(OCC(=O)Nc4ccc(Cl)c(Cl)c4)nn3C)nc2n(CCC)c1=O [AS100, 1,3-di-n-propyl-8-{5-[(3,4-chloro-phenylcarbamoyl)-methoxy]-2-methyl-2H-pyrazole-3-yl}-xanthine] | > 1000 | – | – | 16 | 300 | > 1000 | – | – | – | – |
| CCCn1c(=O)c2[nH]c(-c3ccc(O)nc3)nc2n(CCC)c1=O [AS103, 1,3-di-n-propyl-8-(2-hydroxypyridin-5-yl)-xanthine] | 116 | – | – | 4.9 | – | 606 | 81 | – | – | – |

Continued, in another order:

| Ki [1] [nM] | IC50 [2] [nM] | Ki [3, 6] [nM] | Ki [3, 7] [nM] | Ki [4, 8] [nM] | Ki [5] [nM] | Ki [4] [nM] | SMILES | Ki, [3H]MRE3008F20 binding to human A3 receptors expressed in CHO cells [1] | Ki, [3H]DPCPX binding to human A1 receptors expressed in CHO cells [4, 8] | Ki, [3H]ZM241385 binding to human A2A receptors expressed in CHO cells [5] |
| --- | --- | --- | --- | --- | --- | --- | --- | --- | --- | --- |
| > 1000 | – | – | 207 | 72 | > 1000 | – | CC(C)Cn1c(=O)c2[nH]c(-c3cc(OCC(=O)Nc4ccc(F)cc4)n(C)n3)nc2n(CC(C)C)c1=O [AS62, 2-{[3-(1,3-diisobutyl-2,6-dioxo-2,3,6,9-tetrahydro-1H-purin-8-yl)-1-methyl-1H-pyrazol-5-yl]oxy}-N-(4-fluorophenyl)acetamide] | – | – | – |
| > 1000 | – | – | 66 | 49 | > 1000 | – | CC(C)Cn1c(=O)c2[nH]c(-c3cc(OCC(=O)Nc4ccc(Br)cc4)n(C)n3)nc2n(CC(C)C)c1=O [AS63, 2-{[3-(1,3-diisobutyl-2,6-dioxo-2,3,6,9-tetrahydro-1H-purin-8-yl)-1-methyl-1H-pyrazol-5-yl]oxy}-N-(4-bromophenyl)acetamide] | – | – | – |
| > 1000 | – | – | 132 | 2430 | > 1000 | – | CC(C)Cn1c(=O)c2[nH]c(-c3cc(OCC(=O)Nc4ccc(Br)cc4)nn3C)nc2n(CC(C)C)c1=O [AS67, 2-{[5-(1,3-diisobutyl-2,6-dioxo-2,3,6,9-tetrahydro-1H-purin-8-yl)-1-methyl-1H-pyrazol-3-yl]oxy}-N-(4-bromophenyl)acetamide] | – | – | – |
| – | – | – | 86 | – | – | – | CCCn1c(=O)c2[nH]c(-c3cc(OCC(=O)Nc4ccc(C(C)=O)cc4)nn3C)nc2n(CCC)c1=O [AS69] | without significant binding | without significant binding | without significant binding |
